pEC50: −log10 of the molar value.
Molecular target: T1, human GPR119 (Homo sapiens, UniProt Q8TDV5)
T1 sequence (Q8TDV5 1-308 limits assumed): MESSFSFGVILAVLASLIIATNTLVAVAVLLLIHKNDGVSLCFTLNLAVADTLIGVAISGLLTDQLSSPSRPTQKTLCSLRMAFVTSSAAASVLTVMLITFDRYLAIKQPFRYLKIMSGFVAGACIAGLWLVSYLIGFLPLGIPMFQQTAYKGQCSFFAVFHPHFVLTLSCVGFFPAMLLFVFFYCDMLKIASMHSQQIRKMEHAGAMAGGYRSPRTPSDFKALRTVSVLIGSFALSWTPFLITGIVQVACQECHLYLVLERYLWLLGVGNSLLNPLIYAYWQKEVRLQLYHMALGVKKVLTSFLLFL
Assay: Measurement of GPR119 signaling (cAMP assay; LANCE kit or HTRF) in HEK293 cells stably transfected with human GPR119
Type: cell-based
Conditions: agonist-stimulated cAMP in HEK293 cells expressing human GPR119
Outline: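 LANCE method: cAMP detected with Eu-chelate/biotin-cAMP tracer, 3 h, read at 665 nm, converted via cAMP standards; basal from DMSO, maximum from internal agonist, 4-parameter fit.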

Row | pEC50 | Compound
1 | 8.82 | CCc1cnc(N2CCC([C@H]3C[C@H]3COCc3ccc(-c4ccncn4)cc3F)CC2)nc1 [Example 110, 4-{4-[({(1R,2R)-2-[1-(5-ethylpyrimidin-2-yl)piperidin-4-yl]cyclopropyl}methoxy)methyl]-3-fluorophenyl}pyrimidine]
2 | 6.07 | CCc1cnc(N2CCC([C@H]3C[C@H]3[C@H](COC)OCc3ccc(S(C)(=O)=O)cc3)CC2)nc1 [Example 65]
3 | 9.10 | CCS(=O)(=O)c1ccc(COC[C@@H]2C[C@@H]2C2CCN(c3nc(C4CCC4)no3)CC2)cc1 [Example 32, 1-(3-cyclobutyl-1,2,4-oxadiazol-5-yl)-4-[(1R,2R)-2-({[4-(ethylsulfonyl)benzyl]oxy}methyl)cyclopropyl]piperidine]
